pIC50: −log10 of the molar value.
Experiments:
Assay type in all cases: cell-based
human LAT1 [1] = molecular target: T1, human LAT1 (Homo sapiens, UniProt Q01650); assay: [14C]L-leucine uptake inhibition test using human-LAT1 stably expressing HEK293 cell line; set-up: having full-length cDNA of human LAT1 or LAT2 inserted under a promoter of CMV; expressed in transfected cells; key to Assay Data: degree of [14C]L-leucine uptake inhibition compared with BCH: a test compound having a higher inhibitory effect than BCH is denoted by A; a test compound having the same inhibitory effect as BCH is denoted by B; a test compound having a lower inhibitory effect than BCH is denoted by C; conditions: for Assay Data: degree of [14C]L-leucine uptake inhibition compared with BCH: compound (racemic form) and BCH at 0.1, 1.0, 10 μM, 1 μM [14C]L-leucine, 1 minute, Na+-free HBSS; for LAT1 inhibitory effect, compounds singled out (in words): same test as Table 1
T1 sequence (Q01650 whole entry): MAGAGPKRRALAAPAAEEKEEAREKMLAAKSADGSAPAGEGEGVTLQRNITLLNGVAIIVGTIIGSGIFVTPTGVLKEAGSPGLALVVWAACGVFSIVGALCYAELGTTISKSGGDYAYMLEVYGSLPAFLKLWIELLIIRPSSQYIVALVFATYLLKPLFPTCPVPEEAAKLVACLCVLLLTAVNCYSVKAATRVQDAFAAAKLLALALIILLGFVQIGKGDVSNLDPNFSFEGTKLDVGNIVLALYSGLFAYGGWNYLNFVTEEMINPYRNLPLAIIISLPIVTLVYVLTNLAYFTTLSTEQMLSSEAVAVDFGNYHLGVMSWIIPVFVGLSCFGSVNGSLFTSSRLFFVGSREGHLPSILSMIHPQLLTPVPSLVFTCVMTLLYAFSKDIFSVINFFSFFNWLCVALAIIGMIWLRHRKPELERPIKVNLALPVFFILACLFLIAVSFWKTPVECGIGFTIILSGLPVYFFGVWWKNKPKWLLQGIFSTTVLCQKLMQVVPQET
T1 sequence (P08195 102-630 partner): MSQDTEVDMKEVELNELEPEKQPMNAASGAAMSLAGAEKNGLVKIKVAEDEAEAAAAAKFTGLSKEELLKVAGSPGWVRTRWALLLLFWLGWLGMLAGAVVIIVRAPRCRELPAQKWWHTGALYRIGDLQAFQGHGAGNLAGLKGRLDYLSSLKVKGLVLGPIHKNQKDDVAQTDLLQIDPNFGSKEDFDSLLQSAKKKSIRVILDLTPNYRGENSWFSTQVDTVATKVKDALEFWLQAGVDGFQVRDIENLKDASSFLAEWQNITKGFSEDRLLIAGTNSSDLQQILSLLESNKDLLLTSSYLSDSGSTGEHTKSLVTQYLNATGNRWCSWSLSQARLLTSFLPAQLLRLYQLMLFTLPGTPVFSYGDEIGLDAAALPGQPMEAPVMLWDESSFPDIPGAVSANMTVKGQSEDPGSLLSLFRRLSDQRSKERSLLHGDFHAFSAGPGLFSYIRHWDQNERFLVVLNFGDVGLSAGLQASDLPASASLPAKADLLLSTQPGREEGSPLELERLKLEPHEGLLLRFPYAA
Description: HEK293 cells stably expressing human LAT1 and LAT2 were produced, respectively.
A shuttle vector DNA (LAT1: pcDNA3.1(+) -hLAT1, LAT2: pcDNA3.1(+) -hLAT2; expression vector pcDNA3.1 (+) was produced by Invitrogen Corp.) having ampicillin and neomycin resistance markers and having full-length cDNA of human LAT1 or LAT2 inserted under a promoter of CMV (cytomegalovirus) was constructed. This vector was transfected into the HEK293 cells by a method using Lipofectamine (registered trademark) 2000 (Invitrogen Corp.) according to the manufacturer's instructions. Thereafter, stably expressing cell clones of transgene were selected by a limiting dilution method in the presence of 0.9 mg/mL of Geneticin (registered trademark), and among the obtained cell clones, cell clones having a high uptake of [^14C]L-leucine and maintaining stable expression even after 10 passages were obtained. These cells were used for evaluating affinity and selectivity for LAT1 and LAT2.
1-1. It has been confirmed that LAT1 is responsible for L-leucine uptake in the absence of sodium ions in the human-LAT1 stably expressing HEK293 cell line. The human-LAT1 stably expressing HEK293 cell line was seeded in a 24-well plate at 1×10^5 Cell/Well, and the [^14C]L-leucine uptake inhibition test using the compound was performed after 48 hours. After the medium was removed and the cells were washed with Hank's balanced salt solution (Na^+-free HBSS) not containing sodium ions, the cells were cultured in Na^+-free HBSS for 10 minutes. Thereafter, 1 μM of [^14C]L-leucine was taken up in Na^+-free HBSS in the presence of a test compound (0.1, 1.0, 10, 0 μM in each case), which is a racemic form, for 1 minute, and then the cells were washed three times with ice-cooled Na^+-free HBSS. To the well, 500 μL of 1 M NaOH was added, and after 30 minutes, the cells were lysed, and the cell lysate was collected. The amount of [^14C]L-leucine in the cell lysate was determined using a liquid scintillator. The amount of protein in the cell lysate was measured using BCA Assay Kit (Thermofisher Scientific), and the uptake amount of [^14C]L-leucine per 1 mg of protein in the cell per minute was calculated.
The degree of LAT1 inhibition of the compound obtained in the present invention was compared with BCH (BCH, 2-aminobicyclo-(2,2,1)-heptane-2-carboxylic acid), which is an existing LAT1 inhibitor. In the [^14C]L-leucine uptake inhibition test described above, the degrees of inhibition of [^14C]L-leucine uptake inhibition using the compound (racemic form) obtained in Examples and BCH (0.1, 1.0, 10, 0 μM for both) were compared. […] In the table, a test compound having a higher inhibitory effect than BCH is denoted by A, a test compound having the same inhibitory effect as BCH is denoted by B, and a test compound having a lower inhibitory effect than BCH is denoted by C.

human LAT1 [2] = molecular target: T1, human LAT1; assay: Leucine uptake persistence inhibitory effect after compound removal in human-LAT1 highly expressing cell line; conditions: 20 μM compound for 30 minutes, removed, uptake measured 30 minutes later
Method: The uptake of [^14C]L-leucine remaining after the compound of the present invention was caused to act in advance and removed in the human-LAT1 highly expressing cell line was examined. In the same manner as in the uptake inhibition test, the cell line was seeded in a 24-well plate, and an MEM (Minimum Essential Medium) medium containing 20 μM of the compound (racemic form) was added to the wells and allowed to act for 30 minutes. An MEM medium containing no compound was used as a control. After the compound was caused to act, the cells were washed 3 times with the MEM medium and cultured in the MEM medium for an additional 30 minutes. Thereafter, washing was performed 3 times with Na^+Free-HBSS, and 1 μM of [^14C]L-leucine dissolved in Na^+Free-HBSS was taken up for 1 minute. The cells were washed 3 times with ice-cooled Na^+Free-HBSS, and the amount of [^14C]L-leucine taken up in the cells was determined with a liquid scintillator. In the same manner as in other tests, the amount of protein in the cell fluid was measured, and the uptake amount of [^14C]L-leucine per 1 mg of protein in the cell fluid per minute was determined.

[3] = test system: Mouse colorectal cancer-derived CT26 cells; assay: Cell proliferation inhibitory effect using mouse colorectal cancer cells (CCK-8 assay); conditions: 72 hours compound treatment, read-out: Evaluation of IC50 (proliferation inhibition rate of 50%)
Method: Mouse colorectal cancer-derived CT26 cells were adjusted to […], seeded in a 96-well plate at 1000 cells/well, and cultured in a 10% fetal bovine serum-added RPMI 1640 medium at 5% CO2 and 37° C. The culture medium was changed 24 hours after the start of the culture, and the medium containing the compound of Example was replaced to examine the action of the compound on cell proliferation. As the compound, a concentration of 0.01, 0.03, 0.1, 0.3, 1, 3, 10, or 30 μM was used. As a control, the cells were cultured in a medium containing no compound. The number of cells was evaluated by CCK-8 assay (Cell Counting Kit-8, DOJINDO LABORATORIES) 72 hours after the start of the compound treatment, and the compound concentration (IC50 value) giving a proliferation inhibition rate of 50% as compared with the control was calculated.

| Assay Data: degree of [14C]L-leucine uptake inhibition compared with BCH (human LAT1 [1]) | LAT1 inhibitory effect, compounds singled out (in words) (human LAT1 [1]) | sustained LAT1 inhibitory effect as compared with Example 1-1 (human LAT1 [2]) | pIC50 [3] | Compound |
| --- | --- | --- | --- | --- |
| A | particularly remarkable effects | more remarkable effect | ≥ 6.05 | Cc1cccc(-c2ccccc2Oc2ccc3c(c2)CC(N)(C(=O)O)CC3)c1Cl.Cl (stereo not shown) [Example 1-57, 2-carboxy-7-((2′-Chloro-3′-methyl-[1,1′-biphenyl]-2-yl)oxy)-1,2,3,4-tetrahydronaphthalene-2-aminium chloride] |
| A |  | more remarkable effect | ≥ 6.05 | CN(C)c1cccc(-c2ccccc2Oc2ccc3c(c2)CC(N)(C(=O)O)CC3)c1.Cl.Cl (stereo not shown) [Example 1-50, 2-Carboxy-7-((3′-(Dimethylammonio)-[1,1′-biphenyl]-2-yl)oxy)-1,2,3,4-tetrahydronaphthalene-2-aminium chloride] |
| A | particularly remarkable effects | more remarkable effect | ≥ 6.05 | Cl.NC1(C(=O)O)CCc2ccc(Oc3ccccc3-c3ccc(F)c(F)c3F)cc2C1 (stereo not shown) [Example 1-58, 2-carboxy-7-((2′,3′,4′-trifluoro-[1,1′-biphenyl]-2-yl)oxy)-1,2,3,4-tetrahydronaphthalene-2-aminium chloride] |
| A |  | more remarkable effect | ≥ 6.05 | Cl.NC1(C(=O)O)CCc2ccc(Oc3ccccc3-c3cccc(F)c3)cc2C1 (stereo not shown) [Example 1-30, 2-carboxy-7-((3′-fluoro-[1,1′-biphenyl]-2-yl)oxy)-1,2,3,4-tetrahydronaphthalene-2-aminium chloride] |
| A |  | more remarkable effect | ≥ 6.05 | CSc1cccc(-c2ccccc2Oc2ccc3c(c2)CC(N)(C(=O)O)CC3)c1.Cl (stereo not shown) [Example 1-52, 2-Carboxy-7-((3′-(methylthio)-[1,1′-biphenyl]-2-yl)oxy)-1,2,3,4-tetrahydronaphthalene-2-aminium chloride] |
| A |  | more remarkable effect | ≥ 6.05 | Cl.NC1(C(=O)O)CCc2ccc(Oc3ccccc3-c3cccc4ccccc34)cc2C1 (stereo not shown) [Example 1-35, 2-Carboxy-7-(2-(naphthalen-1-yl)phenoxy)-1,2,3,4-tetrahydronaphthalene-2-aminium chloride] |
| A |  | more remarkable effect | ≥ 6.05 | Cl.NC1(C(=O)O)CCc2ccc(Oc3ccccc3-c3cccc([N+](=O)[O-])c3)cc2C1 (stereo not shown) [Example 1-42, 2-carboxy-7-((3′-nitro-[1,1′-biphenyl]-2-yl)oxy)-1,2,3,4-tetrahydronaphthalene-2-aminium chloride] |
| A | particularly remarkable effects | more remarkable effect | ≥ 6.05 | Cl.NC1(C(=O)O)CCc2ccc(Oc3ccccc3-c3cccc(Cl)c3Cl)cc2C1 (stereo not shown) [Example 1-53, 2-carboxy-7-((2′,3′-dichloro-[1,1′-biphenyl]-2-yl)oxy)-1,2,3,4-tetrahydronaphthalene-2-aminium chloride] |
| A | particularly remarkable effects | more remarkable effect | ≥ 6.05 | Cc1cccc2cccc(Oc3ccc4c(c3)CC(N)(C(=O)O)CC4)c12.Cl (stereo not shown) [Example 1-46, 2-carboxy-7-((8-methylnaphthalen-1-yl)oxy)-1,2,3,4-tetrahydronaphthalene-2-aminium chloride] |
| A |  | more remarkable effect | ≥ 6.05 | Cl.NC1(C(=O)O)CCc2ccc(Oc3ccccc3-c3cccc(F)c3Cl)cc2C1 (stereo not shown) [Example 1-49, 2-Carboxy-7-((2′-Chloro-3′-fluoro-[1,1′-biphenyl]-2-yl)oxy)-1,2,3,4-tetrahydronaphthalene-2-aminium chloride] |
| A | particularly remarkable effects | more remarkable effect | ≥ 6.05 | Cl.NC1(C(=O)O)CCc2ccc(Oc3ccccc3-c3cccc(Cl)c3F)cc2C1 (stereo not shown) [Example 1-54, 2-carboxy-7-((3′-Chloro-2′-fluoro-[1,1′-biphenyl]-2-yl)oxy)-1,2,3,4-tetrahydronaphthalene-2-aminium chloride] |
| A |  |  | ≥ 6.05 | COc1cccc2cccc(Oc3ccc4c(c3)CC(N)(C(=O)O)CC4)c12.Cl (stereo not shown) [Example 1-60, 2-carboxy-7-((8-methoxynaphthalen-1-yl)oxy)-1,2,3,4-tetrahydronaphthalen-2-aminium chloride] |
| A |  |  | ≥ 6.05 | COc1cccc(-c2ccccc2Oc2ccc3c(c2)CC(N)(C(=O)O)CC3)c1.Cl (stereo not shown) [Example 1-39, 2-carboxy-7-((3′-methoxy-[1,1′-biphenyl]-2-yl)oxy)-1,2,3,4-tetrahydronaphthalene-2-aminium chloride] |
| A |  |  | ≥ 6.05 | Cl.NC1(C(=O)O)CCc2ccc(Oc3cccc4cccc(-c5ccccc5)c34)cc2C1 (stereo not shown) [Example 1-61, 2-carboxy-7-((8-phenylnaphthalen-1-yl)oxy)-1,2,3,4-tetrahydronaphthalen-2-aminium chloride] |
| A |  |  | ≥ 6.05 | Cl.NC1(C(=O)O)CCc2ccc(Oc3ccccc3-c3ccccc3)cc2C1 (stereo not shown) [Example 1-16, 7-([1,1′-biphenyl]-2-yloxy)-2-carboxy-1,2,3,4-tetrahydronaphthalene-2-aminium chloride] |

Source: patent publication US20260035339A1, “TETRAHYDRONAPHTHALENE DERIVATIVE” (ATRANSEN PHARMA LTD., priority 2022, published 2026)
